Values of other authors as cited in PMC3906704 (Journal of molecular biochemistry, 2012).

Details: substitution of Gly6 in GnRH-I; ref Karten & Rivier 1986

## L-Ala^6: GnRH analog with L-Ala^6 substitution (QHWSYALRPG; Gonadoliberin-1; UniProt P01148 24-33, looked up, variant G6A)
  Potency relative to native GnRH-I: 4%
